Source: ChEMBL document CHEMBL5257032, “Therapeutic potential of coumarins as antiviral agents” (Eur J Med Chem, 2016)
Values after ≈ are worked out from the molar mass of the structure shown.

Columns and labels:
Chikungunya virus [1] = test: Antiviral activity against CHIKV; assay type: functional, organism-based
Hepatitis B virus = test: Antiviral activity against HBV; assay type: functional, organism-based
Herpesviridae sp. = test: Antiviral activity against Kaposi's sarcoma-associated herpesvirus; assay type: functional, organism-based
Semliki Forest virus = test: Antiviral activity against SFV; assay type: functional, organism-based
Chikungunya virus [2] = test: Antiviral activity against CHIKV virus by CHIKV-Rluc assay; assay type: functional, organism-based
[3] = Selectivity index, ratio of CC50 for cytotoxicity against human Ava5 cells to EC50 for antiviral activity against HCV; assay type: toxicity, cell-based; details: read-out: Ratio CC50/EC50
Human alphaherpesvirus 1 [4] = test: Antiviral activity against Herpes simplex virus 1 assessed as inhibition rate at 10 ug/ml relative to control; assay type: functional
Human alphaherpesvirus 1 [5] = test: Antiviral activity against Herpes simplex virus 1 assessed as inhibition rate at 2.5 ug/ml relative to control; assay type: functional
Human alphaherpesvirus 1 [6] = test: Antiviral activity against Herpes simplex virus 1; assay type: functional, organism-based
Human alphaherpesvirus 1 [7] = test: Antiviral activity against Herpes simplex virus 1 assessed as inhibition rate at 5 ug/ml relative to control; assay type: functional
Human alphaherpesvirus 2 = test: Antiviral activity against Herpes simplex virus 2; assay type: functional, organism-based

CCN(CC)c1ccc2cc(C(=O)c3ccsc3)c(=O)oc2c1
IC50 (Chikungunya virus [1]): 5.1 µM

COc1c(OC/C=C(\C)CCC=C(C)C)ccc2ccc(=O)oc12 [COLLININ]
IC50 (Hepatitis B virus): 17.1 µg/mL (≈ 52.1 µM)

C=CC(C)(C)c1cc2cc3c(cc2oc1=O)OC(C(C)(C)OC(C)=O)C3 (configuration not stated) [RUTAMARIN]
EC50 (Herpesviridae sp.): 1.62 µM

CCN(CC)c1ccc2cc(-c3nc4ccccc4n3C)c(=O)oc2c1
IC50 (Semliki Forest virus): 0.4 µM | IC50 (Chikungunya virus [2]): 6.4 µM

COc1cc(NCc2cc3ccccc3oc2=O)cc(OC)c1OC
selectivity ratio [3]: 10

CC(=O)O[C@@H]1CC[C@]2(C)[C@H](CC[C@](C)(O)[C@@H]2COc2ccc3ccc(=O)oc3c2)C1(C)C
inhibition at 10 µg/mL (Human alphaherpesvirus 1 [4]): 98% | inhibition at 2.5 µg/mL (Human alphaherpesvirus 1 [5]): 65% | EC50 (Human alphaherpesvirus 1 [6]): 38 µg/mL (≈ 85.9 µM) | inhibition at 5 µg/mL (Human alphaherpesvirus 1 [7]): 80%

COC1=CC(=O)c2cc(C)cc(-c3c(OC)cc(OC)c4ccc(=O)oc34)c2C1=O
EC50 (Human alphaherpesvirus 2): 10 µg/mL (≈ 24.6 µM) | EC50 (Human alphaherpesvirus 1 [6]): 10 µg/mL (≈ 24.6 µM)
